Experiments:
Format in all cases: cell-based
[1] = molecular target: T1, human TRPM5 ion channel (Homo sapiens, UniProt Q9NZQ8); experiment: TRPM5 FLIPR membrane potential screening assay (ATP stimulation); conditions: 10 μM compound; HEK293 cells stably expressing human TRPM5; 3 μM ATP stimulation; versus negative control wells; read-out: TRPM5 Activity (percent inhibition)
T1 construct: expressed in transfected cells
T1 sequence (Q9NZQ8 1-1165): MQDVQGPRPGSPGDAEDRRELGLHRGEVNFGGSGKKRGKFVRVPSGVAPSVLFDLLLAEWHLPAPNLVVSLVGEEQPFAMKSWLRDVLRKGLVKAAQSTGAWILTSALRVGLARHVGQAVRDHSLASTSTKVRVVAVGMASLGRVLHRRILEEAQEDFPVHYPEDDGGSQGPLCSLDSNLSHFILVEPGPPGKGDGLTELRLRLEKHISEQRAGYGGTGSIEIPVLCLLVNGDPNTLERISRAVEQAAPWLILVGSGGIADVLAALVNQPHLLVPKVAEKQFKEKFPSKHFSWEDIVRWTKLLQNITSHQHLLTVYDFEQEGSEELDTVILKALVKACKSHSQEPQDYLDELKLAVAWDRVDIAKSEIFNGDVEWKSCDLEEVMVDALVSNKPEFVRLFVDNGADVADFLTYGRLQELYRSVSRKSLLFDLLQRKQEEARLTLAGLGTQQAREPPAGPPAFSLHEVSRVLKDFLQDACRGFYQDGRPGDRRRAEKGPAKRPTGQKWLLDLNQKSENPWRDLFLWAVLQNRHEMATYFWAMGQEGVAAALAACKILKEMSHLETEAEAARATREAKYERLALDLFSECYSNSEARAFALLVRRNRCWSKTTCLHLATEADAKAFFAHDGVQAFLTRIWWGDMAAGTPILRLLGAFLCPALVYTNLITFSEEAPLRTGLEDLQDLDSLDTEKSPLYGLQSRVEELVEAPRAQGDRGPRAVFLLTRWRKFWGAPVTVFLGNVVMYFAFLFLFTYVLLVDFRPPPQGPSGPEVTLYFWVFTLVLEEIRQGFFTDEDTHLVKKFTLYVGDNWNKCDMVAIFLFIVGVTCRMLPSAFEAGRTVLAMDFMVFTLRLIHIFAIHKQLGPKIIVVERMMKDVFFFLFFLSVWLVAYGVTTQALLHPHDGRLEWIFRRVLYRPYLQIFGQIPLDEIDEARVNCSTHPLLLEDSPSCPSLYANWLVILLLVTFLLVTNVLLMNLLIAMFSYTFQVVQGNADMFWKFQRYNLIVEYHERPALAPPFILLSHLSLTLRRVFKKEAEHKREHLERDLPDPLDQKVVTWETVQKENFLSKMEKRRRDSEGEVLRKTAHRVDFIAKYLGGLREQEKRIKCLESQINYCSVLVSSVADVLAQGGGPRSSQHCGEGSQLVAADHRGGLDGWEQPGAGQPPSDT
Procedure: The activity of human TRPM5 ion channel was measured in live cells on a fluorescent imaging plate reader (FLIPR). The basis of the assay (shown in FIG. 1) is the calcium-dependent activation of the ion channel which occurs via by activation of a G-protein coupled receptor (GPCR). GPCR activation by an appropriate agonist causes a transient increase in […] Ca^2+ ion concentration which in turn causes the ion channel to open, letting in Na^+ ions. This influx causes a change in the membrane potential of the cell which can be monitored as a change in the fluorescent signal from voltage-dependent (membrane potential) fluorescent dyes.
For the screening assay, the human TRPM5 gene was cloned, put into HEK293 cells, and a stable, high expression clone was used for screening. Cells were grown in standard media at 37° C. The day before screening, the cells were removed from flasks and added to 384 well clear bottom plates (8K cells in 20 μL/well). On the assay day, 20 μL of membrane potential dye (Part No. R8123, Molecular Devices Corp.) was added to the cells and dye was allowed to be taken up, i.e., load, into the cells for 1 hr at 37° C. […] The assay was started by addition of 10 μL of solution from the compound plate into the cell plate. During this process, continuous fluorescent recordings were made simultaneously for all wells. After addition of the compound solution, the tips were automatically washed and a stimulation solution of 3 μM ATP (an agonist for an endogenous purinurgic GPCR, was added to all wells of the cell plate. The height of the response was calculated and percent inhibition values, versus negative control wells, was calculated for the test samples.
(§1) Unless otherwise indicated, the data in the table below were determined using the three assays described above, providing percent inhibition data at 10 μM.

[2] = test system: GPCR-mediated calcium activation step; experiment: Calcium counterscreen (calcium sensitive dye, ATP stimulation); conditions: Homo sapiens, 10 μM compound, same HEK293 TRPM5 cells, Calcium3 dye, read-out: Calcium Counterscreen (percent inhibition)
Procedure: (§2) Two counterscreen assays were run on separate cell plates utilizing the same cells as described above. In the calcium counterscreen, the cells were loaded with a calcium sensitive dye (Calcium3 Dye, Part no. 8090, Molecular Devices Corp.) and stimulated by ATP to check for compounds that block the GPCR-mediated calcium activation step. In the KCl counterscreen, cells are stimulated with 10 mM KCl instead of ATP to check for compounds that inhibit the membrane potential response by virtue of being non-specific ion channel blockers.
as §1

[3] = test system: membrane potential response (non-specific ion channel block); experiment: KCl counterscreen (membrane potential dye, 10 mM KCl stimulation); conditions: Homo sapiens; 10 μM compound; same HEK293 TRPM5 cells; 10 mM KCl instead of ATP; read-out: KC1 Counterscreen (percent inhibition)
Procedure: as §2, §1

[4] = molecular target: T2, human TRPM5 (Homo sapiens, UniProt Q9NZQ8); experiment: Whole-cell electrophysiology of TRPM5 current; conditions: HEK293; HEK cells stably transfected with human TRPM5, pre-treated with 10 μM; current activated by intracellular calcium dialysis (170 nM free calcium); FIG. 2B
T2 construct: expressed in transfected cells; host or cells: HEK cells, stably transfected
T2 sequence (Q9NZQ8 1-1165): T1 sequence (Q9NZQ8 1-1165)
Procedure: Standard whole-cell recordings were obtained from HEK cells stably transfected with human TRPM5. Internal solution contained 135 mM CsGlutamate, 10 mM HEPES, 2 mM MgATP, 5 mM CaCl2 and 10 mM EGTA. External solution was HBSS (Gibco) buffered with 20 mM HEPES to pH 7.2. Currents were recorded with Multiclamp 700B amplifier using PClamp software; filered at 1 kHz, sampled at 5 kHz. Holding potential was −80 mV. TRPM5 current was activated by intracellular calcium dialysis (170 nM free calcium) and sampled with 200 ms ramps from −80 to 80 mV at 1 Hz. Current amplitudes were measured at −80 and 80 mV potted versus time.

## COc1ccc(/C=N/NC(=O)Cc2cccc3ccccc23)cc1OC [Example 3, (E)-N′-(3,4-Dimethoxybenzylidene)-2-(naphthalene-1-yl)acetohydrazide]
[1]
  inhibition at 10 µM: 97%
[2]
  inhibition at 10 µM: 2%
[3]
  inhibition at 10 µM: 6%
[4]
  inhibition at 10 µM: > 90%
